In patent US9458181B2, “Cathepsin cysteine protease inhibitors” (Merck Sharp & Dohme Corp., priority 2013, dated 2016):

How the values were obtained:
[1] = target: T1, human cathepsin F (Homo sapiens, UniProt Q9UBX1); assay: Cathepsin F assay (hCat F); format: biochemical; conditions: human cathepsin F 10 nM, Z-Phe-Arg-AMC 8 μM, pH 5.5, 15 min preincubation; read-out: hCat F IP
T1 sequence (Q9UBX1 271-484): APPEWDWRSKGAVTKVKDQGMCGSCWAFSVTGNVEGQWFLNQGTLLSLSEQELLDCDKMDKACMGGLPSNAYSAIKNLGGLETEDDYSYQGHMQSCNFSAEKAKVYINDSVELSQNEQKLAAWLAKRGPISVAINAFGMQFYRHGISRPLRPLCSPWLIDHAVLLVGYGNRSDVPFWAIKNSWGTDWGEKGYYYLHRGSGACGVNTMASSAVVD
Procedure: Cathepsin F assay (hCat F)
(§1) Serial dilutions (⅓) from 500 μM down to 0.025 μM of test compounds were prepared in dimethyl sulfoxide (DMSO). Then 0.5 μL of DMSO from each dilution were added to 18.75 μL of assay buffer (MES, 50 mM (pH 5.5); EDTA, 2.5 mM; DTT, 2.5 mM and 10% DMSO) containing human cathepsin F (10 nM) in assay buffer solution. The assay solutions were mixed for 5-10 seconds on a shaker plate and incubated for 15 minutes at room temperature. Z-Phe-Arg-AMC (8 μM) in 6.25 μL of assay buffer was added to the assay solutions. Hydrolysis of the coumarin leaving group (AMC) was followed by spectrofluorometry (Exp, =360 nm; EmX=460 nm) for 20 minutes. Percent of inhibition were calculated by fitting experimental values to standard mathematical model for dose response curve.

[2] = target: human cathepsin K (UniProt P43236); assay: Cathepsin K Assay (hrbCat K); format: biochemical; conditions: human cathepsin K 0.4 nM, Z-Leu-Arg-AMC 8 μM, pH 5.5, 15 min preincubation; read-out: hrbCat K IP
Procedure: Cathepsin K Assay (hrbCat K)
as §1, with “K (0.4” for “F (10”, “Z-Leu-Arg-AMC” for “Z-Phe-Arg-AMC”, “(Exλ=360” for “(Exp, =360”, “Emλ=460” for “EmX=460”, “30” for “20”

## N#Cc1cccc(-c2nc(-c3ccc(N4CCS(=O)(=O)CC4)cc3)c([C@@H]3CCCC[C@H]3C(=O)NC3(C#N)CC3)o2)c1 [Example 93, (1R,2R)-N-(1-cyanocyclopropyl)-2-(2-(3-cyanophenyl)-4-(4-(1,1-dioxidothiomorpholino)phenyl)oxazol-5-yl)cyclohexanecarboxamide]
[1]
  IC50: 1100 nM
[2]
  IC50: 1.89 nM

## N#CC1(NC(=O)[C@@H]2CCCC[C@H]2c2oc(-c3cccnc3)nc2-c2ccc(N3CCS(=O)(=O)CC3)cc2)CC1 [Example 29, (1R,2R)-N-(1-cyanocyclopropyl)-2-(4-(4-(1,1-dioxidothiomorpholino)phenyl)-2-(pyridin-3-yl)oxazol-5-yl)cyclohexanecarboxamide]
[1]
  IC50: 565 nM
[2]
  IC50: 0.48 nM

## Cc1nc(-c2ccc(N3CCS(=O)(=O)CC3)cc2)c([C@@H]2CCCC[C@H]2C(=O)NC2(C#N)CC2)s1 [Example 54, (1R,2R)-N-(1-cyanocyclopropyl)-2-(4-(4-(1,1-dioxidothiomorpholino)phenyl)-2-methylthiazol-5-yl)cyclohexanecarboxamide]
[1]
  IC50: 5310 nM
[2]
  IC50: 2.31 nM

## COc1ccccc1-c1nc(-c2ccc(N3CCS(=O)(=O)CC3)cc2)c([C@@H]2CCCC[C@H]2C(=O)NC2(C#N)CC2)o1 [Example 72, (1R,2R)-N-(1-cyanocyclopropyl)-2-(4-(4-(1,1-dioxidothiomorpholino)phenyl)-2-(2-methoxyphenyl)oxazol-5-yl)cyclohexanecarboxamide]
[1]
  IC50: 750 nM
[2]
  IC50: 1.49 nM

## CS(=O)(=O)N1CCN(C(=O)c2ccc(-c3nc(-c4ccc(F)cc4F)oc3[C@@H]3CCCC[C@H]3C(=O)NC3(C#N)CC3)cc2)CC1 [Example 129, (1R,2R)-N-(1-cyanocyclopropyl)-2-(2-(2,4-difluorophenyl)-4-(4-(4-(mcthylsulfonyl)piperazine-1-carbonyl)phenyl)oxazol-5-yl)cyclohexanecarboxamide]
[1]
  IC50: 3930 nM
[2]
  IC50: 9.12 nM

## Cc1nccc(-c2nc(-c3ccc(N4CCS(=O)(=O)CC4)cc3)c([C@@H]3CCCC[C@H]3C(=O)NC3(C#N)CC3)o2)n1 [Example 82, (1R,2R)-N-(1-cyanocyclopropyl)-2-(4-(4-(1,1-dioxidothiomorpholino)phenyl)-2-(2-methylpyrimidin-4-yl)oxazol-5-yl)cyclohexanecarboxamide]
[1]
  IC50: 5140 nM
[2]
  IC50: 2.66 nM

## N#CC1(NC(=O)[C@@H]2CCCC[C@H]2c2oc(-c3ccccc3OC(F)(F)F)nc2-c2ccc(N3CCS(=O)(=O)CC3)cc2)CC1 [Example 63, (1R,2R)-N-(1-cyanocyclopropyl)-2-(4-(4-(1,1-dioxidothiomorpholino)phenyl)-2-(2-(trifluoromethoxy)phenyl)oxazol-5-yl)cyclohcxanecarboxamide]
[1]
  IC50: 639 nM
[2]
  IC50: 1.23 nM

## COC(c1ccccc1)(c1nc(-c2ccc(N3CCS(=O)(=O)CC3)cc2)c([C@@H]2CCCC[C@H]2C(=O)NC2(C#N)CC2)o1)C(F)(F)F (mixture of isomers) [Example 116, (1R,2R)-N-(1-cyanocyclopropyl)-2-(4-(4-(1,1-dioxidothiomorpholino)phenyl)-2-((R and S)-2,2,2-trifluoro-1-methoxy-1-phenylethyl)oxazol-5-yl)cyclohexanecarboxamide]
[1]
  IC50: 1210 nM
[2]
  IC50: 1.38 nM

## N#CC1(NC(=O)[C@@H]2C[C@@H](F)CC[C@H]2c2oc(-c3ccc(F)cc3)nc2-c2ccc(N3CCS(=O)(=O)CC3)cc2)CC1 [Example 31, (1R,2R,5S)-N-(1-cyanocyclopropyl)-2-(4-(4-(1,1-dioxidothiomorpholino)phenyl)-2-(4-fluorophenyl)oxazol-5-yl)-5-fluorocyclohexane-carboxamide]
[1]
  IC50: 1390 nM
[2]
  IC50: 0.61 nM

## N#CC(NC(=O)[C@@H]1CCCC[C@H]1c1oc(-c2ccc(F)cc2)nc1-c1ccc(N2CCS(=O)(=O)CC2)cc1)C(F)(F)F (mixture of isomers) [Example 149, (1R,2R)-N-((S and R)-1-cyano-2,2,2-trifluoroethyl)-2-(4-(4-(1,1-dioxidothiomorpholino)phenyl)-2-(4-fluorophenyl)oxazol-5-yl)cyclohexanecarboxamide]
[1]
  IC50: 53 nM
[2]
  IC50: 1.3 nM

## N#CC1(NC(=O)[C@@H]2CCCC[C@H]2c2oc(-c3ccc(C4CC4)cc3)nc2-c2ccc(N3CCS(=O)(=O)CC3)cc2)CC1 [Example 101, (1R,2R)-N-(1-cyanocyclopropyl)-2-(2-(4-cyclopropylphenyl)-4-(4-(1,1-dioxidothiomorpholino)phenyl)oxazol-5-yl)cyclohexanecarboxamide]
[1]
  IC50: 377 nM
[2]
  IC50: 0.88 nM

## N#CC1(NC(=O)[C@@H]2CCCC[C@H]2c2oc(-c3ncccc3F)nc2-c2ccc(N3CCS(=O)(=O)CC3)cc2)CC1 [Example 84, (1R,2R)-N-(1-cyanocyclopropyl)-2-(4-(4-(1,1-dioxidothiomorpholino)phenyl)-2-(3-fluoropyridin-2-yl)oxazol-5-yl)cyclohexanecarboxamide]
[1]
  IC50: 4230 nM
[2]
  IC50: 2.92 nM

## CC(C#N)NC(=O)[C@@H]1CCCC[C@H]1c1oc(-c2ccc(F)cc2)nc1-c1ccc(N2CCS(=O)(=O)CC2)cc1 (single isomer, unassigned) [Example 121, (1R,2R)-N-((R or S)-1-cyanoethyl)-2-(4-(4-(1,1-dioxidothiomorpholino)phenyl)-2-(4-fluorophenyl)oxazol-5-yl)cyclohexanecarboxamide]
[1]
  IC50: ≥ 10000 nM
[2]
  IC50: 24.1 nM

## Cc1nc(-c2ccc(N3CC(S(C)(=O)=O)C3)cc2)c([C@@H]2CCCC[C@H]2C(=O)NC2(C#N)CC2)s1 [Example 55, (1R,2R)-N-(1-cyanocyclopropyl)-2-(2-mcthyl-4-(4-(3-(methylsulfonyl)azetidin-1-yl)phenyl)thiazol-5-yl)cyclohexanecarboxamide]
[1]
  IC50: 5480 nM
[2]
  IC50: 4.15 nM

## CS(=O)(=O)C1CN(c2ccc(-c3nc(C(F)(F)F)oc3[C@@H]3CCCC[C@H]3C(=O)NC3(C#N)CC3)cc2)C1 [Example 25]
[1]
  IC50: 447 nM
[2]
  IC50: 0.66 nM

## N#CC1(NC(=O)[C@@H]2CCCC[C@H]2c2oc(-c3ccccc3C(F)(F)F)nc2-c2ccc(N3CCS(=O)(=O)CC3)cc2)CC1 [Example 69, (1R,2R)-N-(1-cyanocyclopropyl)-2-(4-(4-(1,1-dioxidothiomorpholino)phenyl)-2-(2-(trifluoromethyl)phenyl)oxazol-5-yl)cyclohexanecarboxamide]
[1]
  IC50: 827 nM
[2]
  IC50: 2.94 nM

## CCC(C#N)NC(=O)[C@@H]1CCCC[C@H]1c1oc(-c2ccc(F)cc2)nc1-c1ccc(N2CCS(=O)(=O)CC2)cc1 (single isomer, unassigned) [Example 125, (1R,2R)-N-((S or R)-1-cyanopropyl)-2-(4-(4-(1,1-dioxidothiomorpholino)phenyl)-2-(4-fluorophenyl)oxazol-5-yl)cyclohexanecarboxamide]
[1]
  IC50: 104 nM
[2]
  IC50: 0.69 nM

## N#CC1(NC(=O)[C@@H]2CCCC[C@H]2c2oc(-c3nccs3)nc2-c2ccc(N3CCS(=O)(=O)CC3)cc2)CC1 [Example 78, (1R,2R)-N-(1-cyanocyclopropyl)-2-(4-(4-(1,1-dioxidothiomorpholino)phenyl)-2-(thiazol-2-yl)oxazol-5-yl)cyclohexanecarboxamide]
[1]
  IC50: 2650 nM
[2]
  IC50: 2.49 nM
